# Target: human DPP1 enzyme (Homo sapiens (Human), UniProt P53634)
# Assay: Human DPP1 Enzyme IC50 Assay
# Assay type: biochemical
# Settings: recombinant human DPP1 activated with cathepsin L, H-Gly-Arg-AMC substrate, 10 min pre-incubation at 37° C., MES pH 6.0
# Experimental: Recombinant human DPP1 enzyme (R&D Systems; Minneapolis, MN) was first proteolytically processed into its mature form using recombinant human cathepsin L (R&D Systems) in a buffer consisting of 20 mM citric acid pH 4.5, 150 mM NaCl, 1 mM EDTA and 10 mM DTT. Test articles were applied to activated human DPP1 enzyme in Assay Buffer (25 mM MES pH 6.0, 50 mM NaCl, 5 mM DTT) in a total reaction volume of 125 μL. 25 μL of compound in Assay Buffer plus 5% DMSO was first added to 50 μL of activated human DPP1 enzyme at a concentration of 1 ng/μL and allowed to pre-incubate for 10 minutes at 37° C. after which 50 μL of 1000 μM H-Gly-Arg-AMC substrate (Bachem; St. Torrance, CA) was added, giving final substrate concentration of 400 µM and a final DMSO concentration of 1%. Substrate cleavage was measured for 90 minutes at 37° C., with fluorescence at Excitation/Emission 350/450 nm measured every 5 minutes. DPP1 concentration was interpolated based on its activity relative to a standard curve of activated human recombinant DPP1 enzyme. IC50 values for each compound were calculated via the XLFit (IDBS Version 5.3.1.3) Add-On to Microsoft Excel using the four parameter fit equation y={A+[(B−A)]/[1+((C/x)^D)]}, which appears as equation number 205 (4 Parameter Logistic Model or Sigmoidal Dose-Response Model) in XLFit. Default constraints were used for each Parameter. IC50 was defined as the compound concentration at which 50% of enzyme activity was inhibited when compared to the no-compound control.
# Chain of human DPP1 enzyme (P53634 25-134): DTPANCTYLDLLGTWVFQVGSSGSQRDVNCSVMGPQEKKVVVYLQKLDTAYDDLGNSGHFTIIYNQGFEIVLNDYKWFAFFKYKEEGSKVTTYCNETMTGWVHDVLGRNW
# Chain of human DPP1 enzyme (P53634 231-394): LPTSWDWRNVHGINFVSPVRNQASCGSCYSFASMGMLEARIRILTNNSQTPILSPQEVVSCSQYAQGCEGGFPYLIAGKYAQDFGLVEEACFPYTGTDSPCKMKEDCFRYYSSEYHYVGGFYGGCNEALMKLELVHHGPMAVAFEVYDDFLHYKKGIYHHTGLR
# Chain of human DPP1 enzyme (P53634 395-463): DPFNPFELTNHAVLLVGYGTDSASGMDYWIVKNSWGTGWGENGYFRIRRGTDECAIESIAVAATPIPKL
row,IC50 [nM],SMILES
1,39.6,"Cn1c(=O)oc2ccc(-c3ccc(C[C@@H](C#N)NC(=O)[C@@H]4CNC[C@@](C)(O)CO4)cc3)cc21 (relative stereo) [Compound 2-A, (2S,6R*)—N-[(1S)-1-cyano-2-[4-(3-methyl-2-oxo-2,3-dihydro-1,3-benzoxazol-5-yl)phenyl]ethyl]-6-hydroxy-6-methyl-1,4-oxazepane-2-carboxamide]"
2,206,"CO[C@]1(C)CNC[C@@H](C(=O)N[C@H](C#N)Cc2ccc(-c3ccc4oc(=O)n(C)c4c3)cc2)OC1 (relative stereo) [Compound 3-B, (2S,6R*)—N-[(1S)-1-cyano-2-[4-(3-methyl-2-oxo-2,3-dihydro-1,3-benzoxazol-5-yl)phenyl]ethyl]-6-methoxy-6-methyl-1,4-oxazepane-2-carboxamide]"
3,145,"CO[C@@]1(C)CNC[C@@H](C(=O)N[C@H](C#N)Cc2ccc(-c3ccc4oc(=O)n(C)c4c3)cc2)OC1 (relative stereo) [Compound 3-A, (2S,6S*)—N-[(1S)-1-cyano-2-[4-(3-methyl-2-oxo-2,3-dihydro-1,3-benzoxazol-5-yl)phenyl]ethyl]-6-methoxy-6-methyl-1,4-oxazepane-2-carboxamide]"

# Target: mouse DPP1 enzyme (Mus musculus (Mouse), UniProt P97821)
# Sequence (P97821 25-134): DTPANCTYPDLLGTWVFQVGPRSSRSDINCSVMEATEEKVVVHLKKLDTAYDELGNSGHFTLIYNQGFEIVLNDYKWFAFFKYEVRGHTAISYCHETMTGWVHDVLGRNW
# Sequence (P97821 231-393): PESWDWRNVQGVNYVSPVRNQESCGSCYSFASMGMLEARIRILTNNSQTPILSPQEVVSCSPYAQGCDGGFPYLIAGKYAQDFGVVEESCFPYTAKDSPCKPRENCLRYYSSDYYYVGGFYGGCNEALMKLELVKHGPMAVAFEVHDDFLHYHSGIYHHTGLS
# Sequence (P97821 394-462): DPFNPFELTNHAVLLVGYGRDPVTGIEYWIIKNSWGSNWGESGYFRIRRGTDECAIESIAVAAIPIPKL
# Assay: Mouse DPP1 Enzyme IC50 Assay
# Assay type: biochemical
# Settings: active mouse DPP1 enzyme, H-Gly-Arg-AMC substrate, 10 min pre-incubation at 37° C., MES pH 5.5
# Experimental: Test articles were applied to active mouse DPP1 enzyme (R&D Systems; Minneapolis, MN) in Assay Buffer (50 mM MES pH 5.5, 50 mM NaCl, 5 mM DTT) in a total reaction volume of 125 μL. 25 μL of compound in Assay Buffer plus 5% DMSO was first added to 50 μL of active mouse DPP1 enzyme at a concentration of 62.5 pg/μL and allowed to pre-incubate for 10 minutes at 37° C. after which 50 μL of 1000 μM H-Gly-Arg-AMC substrate (Bachem; St. Torrance, CA) was added, giving final substrate concentration of 400 µM and a final DMSO concentration of 1%. Substrate cleavage was measured for 90 minutes at 37° C., with fluorescence at Excitation/Emission 350/450 nm measured every 5 minutes. DPP1 concentration was interpolated based on its activity relative to a standard curve of recombinant active mouse DPP1 enzyme. IC50 values for each compound were calculated via the XLFit (IDBS Version 5.3.1.3) Add-On to Microsoft Excel using the four parameter fit equation y=(A+((B−A)/(1+ ((C/x)^D)))), which appears as equation number 205 (4 Parameter Logistic Model or Sigmoidal Dose-Response Model) in XLFit. Default constraints were used for each Parameter. IC50 was defined as the compound concentration at which 50% of enzyme activity was inhibited when compared to the no-compound control.
row,SMILES,IC50 [nM]
1,"Cn1c(=O)oc2ccc(-c3ccc(C[C@@H](C#N)NC(=O)[C@@H]4CNC[C@@](C)(O)CO4)cc3)cc21 (relative stereo) [Compound 2-A, (2S,6R*)—N-[(1S)-1-cyano-2-[4-(3-methyl-2-oxo-2,3-dihydro-1,3-benzoxazol-5-yl)phenyl]ethyl]-6-hydroxy-6-methyl-1,4-oxazepane-2-carboxamide]",51.7
2,"CO[C@]1(C)CNC[C@@H](C(=O)N[C@H](C#N)Cc2ccc(-c3ccc4oc(=O)n(C)c4c3)cc2)OC1 (relative stereo) [Compound 3-B, (2S,6R*)—N-[(1S)-1-cyano-2-[4-(3-methyl-2-oxo-2,3-dihydro-1,3-benzoxazol-5-yl)phenyl]ethyl]-6-methoxy-6-methyl-1,4-oxazepane-2-carboxamide]",251
3,"CO[C@@]1(C)CNC[C@@H](C(=O)N[C@H](C#N)Cc2ccc(-c3ccc4oc(=O)n(C)c4c3)cc2)OC1 (relative stereo) [Compound 3-A, (2S,6S*)—N-[(1S)-1-cyano-2-[4-(3-methyl-2-oxo-2,3-dihydro-1,3-benzoxazol-5-yl)phenyl]ethyl]-6-methoxy-6-methyl-1,4-oxazepane-2-carboxamide]",130
4,"Cn1c(=O)oc2ccc(-c3ccc(C[C@@H](C#N)NC(=O)[C@@H]4CNCCCCO4)cc3)cc21 (single isomer, unassigned) [drawing 490]",41.4 ± 4.5
5,"CC[C@]1(O)CNC[C@@H](C(=O)N[C@H](C#N)Cc2ccc(-c3ccc4oc(=O)n(C)c4c3)cc2)OC1 (single isomer, unassigned) [drawing 493]",4040
6,Cn1c(=O)oc2ccc(-c3ccc(C[C@@H](C#N)NC(=O)C4CCCCCNC4)cc3)cc21 (stereo partly drawn) [IA],63.4
7,"CC[C@@]1(O)CNC[C@@H](C(=O)N[C@H](C#N)Cc2ccc(-c3ccc4oc(=O)n(C)c4c3)cc2)OC1 (single isomer, unassigned) [drawing 492]",36.9
8,"Cn1c(=O)oc2ccc(-c3ccc(C[C@@H](C#N)NC(=O)[C@H]4CCCCCNC4)cc3)cc21 (single isomer, unassigned)",54
9,"Cn1c(=O)oc2ccc(-c3ccc(C[C@@H](C#N)NC(=O)[C@@H]4CNC[C@](C)(O)CO4)cc3)cc21 (single isomer, unassigned) [drawing 491]",351 ± 223

# Further lines, results first:
row,IC50 [nM],SMILES
1,2.36 ± 0.3,"Cn1c(=O)oc2ccc(-c3ccc(C[C@@H](C#N)NC(=O)[C@@H]4CNC[C@@]5(CCO5)CO4)cc3)cc21 (single isomer, unassigned) [drawing 496]"
2,1640,"CCO[C@]1(C)CNC[C@@H](C(=O)N[C@H](C#N)Cc2ccc(-c3ccc4oc(=O)n(C)c4c3)cc2)OC1 (single isomer, unassigned) [drawing 504]"
3,7.04,"CO[C@@H]1CCO[C@H](C(=O)N[C@H](C#N)Cc2ccc(-c3ccc4oc(=O)n(C)c4c3)cc2)CNC1 (single isomer, unassigned) [drawing 505]"
4,6.05 ± 2,"CCO[C@@H]1CCNC[C@@H](C(=O)N[C@H](C#N)Cc2ccc(-c3ccc4oc(=O)n(C)c4c3)cc2)OC1 (single isomer, unassigned) [drawing 499]"
5,148 ± 16,"Cn1c(=O)oc2ccc(-c3ccc(C[C@@H](C#N)NC(=O)[C@H]4CCCCCNC4)c(F)c3)cc21 (single isomer, unassigned) [drawing 501]"
6,> 5000,"CC(C)[C@]1(O)CNC[C@@H](C(=O)N[C@H](C#N)Cc2ccc(-c3ccc4oc(=O)n(C)c4c3)cc2)OC1 (single isomer, unassigned) [drawing 494]"
7,33.9 ± 4,"Cn1c(=O)oc2ccc(-c3ccc(C[C@@H](C#N)NC(=O)[C@@H]4CNCCCCO4)cc3)cc21 (single isomer, unassigned) [drawing 497]"
8,13.1 ± 3.7,"Cn1c(=O)oc2ccc(-c3ccc(C[C@@H](C#N)NC(=O)C4CCCCCNC4)c(F)c3)cc21 (single isomer, unassigned) [drawing 500]"
9,629,Cn1c(=O)oc2ccc(-c3ccc(C[C@@H](C#N)NC(=O)[C@@H]4CCCCCNC4)cc3)cc21 [drawing 502]
10,> 5000,"CCO[C@@]1(C)CNC[C@@H](C(=O)N[C@H](C#N)Cc2ccc(-c3ccc4oc(=O)n(C)c4c3)cc2)OC1 (single isomer, unassigned) [drawing 503]"
11,17.8 ± 2,"CN1CC2(C1)OC(=O)c1ccc(-c3ccc(C[C@@H](C#N)NC(=O)[C@@H]4CNCCCCO4)cc3)cc12 (single isomer, unassigned) [drawing 498]"
12,4.2 ± 0.8,"Cn1c(=O)oc2ccc(-c3ccc(C[C@@H](C#N)NC(=O)[C@@H]4CNCC5(CCO5)CO4)cc3)cc21 (single isomer, unassigned) [drawing 495]"

# From patent publication US20250223284A1, “REVERSIBLE DPP1 INHIBITORS AND USES THEREOF” (Insmed Incorporated, priority 2023, published 2025)
